# Tests used:
# [1] = test system: barley genotype Igri microspores; test: Effect of duration of pretreatment on embryo formation; assay type: cell-based
# Method: The effect of the duration of pre-treatment on embryogenesis from barley genotype Igri for spikes incubated with 0.3 mol/L mannitol at 4° C. Table 3 illustrates that as few as 4 days of pre-treatment drastically effects the number of embryos formed from microspores. Although the number formed increases up to 28 days of pre-treatment, only a 4 day period is required to achieve beneficial effects. […] However, duration of pre-treatment did appear to effect Oxbow as previously mentioned, and as illustrated in Table 2.
# [2] = test system: barley microspores; test: Embryo induction and regeneration following pretreatment of barley genotypes; assay type: cell-based; details: for % embryoid Regeneration: 500 embryos per plate; for Embryoids: average from 3 plates
# Method: Embryogenesis from thirty different barley genotypes was conducted according to the procedure in accordance with the present invention. Between 10,000 to 15,000 embryos were usually produced per plate. Table 2 illustrates some counts of embryos based on an average of three replications (plates). Not all thirty genotypes were counted. However, response of each genotype was judged on the basis of the appearance of plates after two weeks and again after 4 to 5 weeks. Random samples of 500 embryos were taken from the counted plates and placed on regeneration media to estimate the embryo regeneration ability. […] FIG. 4 illustrates barley c.v. Igri embryo development at 3 weeks (FIG. 4(a)) and 5 weeks (FIG. 4(b)) on filter paper placed on solidified induction media.
# Three different pre-treatments were compared within the genotype Igri and no apparent differences were observed relative to embryo induction or regeneration (Table 2). Lina normally responds well in microspore culture following a mannitol pre-treatment, but in this study using the combination of cold plus mannitol for 7 days, response was low. Thus, embryo formation was also counted in Lina when a 21 day cold pretreatment had been used and this response was more typical of Lina (Table 2). The regeneration response from the two pretreatment methods on Lina was similar. The frequency of fertile doubled haploids among the Lina progeny following the two pretreatments was not different, namely 79% after the combination 7-day treatment and 83% after the 21 day cold pretreatment.
# Embryogenesis was visually assessed in barley winter genotypes; OAC Elmira, GBC776, GBC779, GBC780 and GBC781, and spring genotypes, Trinity, Cooper, Golden Promise, Disa, Morex, Excel, Elrose, Bruce, Rodeo, H936 and Sabarilis. […] Under these conditions about 2,000 plants per 10^5 microspores, or about 200 plants per spike on responsive genotypes has been observed.
# [3] = GBC 777, pretreatment 4 d 0.3M man. 4° C.
# [4] = GBC 778, pretreatment 4 d 3.3M man. 4° C.
# [5] = Harrington, pretreatment 3 d 0.3M man. 4° C.
# [6] = Igri, pretreatment 4 d 0.3M man. 4° C.
# [7] = Igri, pretreatment 4 d 0.3M man. 25° C.
# [8] = Lina, pretreatment 7 d 0.3M man 4° C.
# [9] = Manley, pretreatment 4 d 0.3M man. 4° C.
# [10] = Oxbow, pretreatment 21 d 0.3M man. 4° C.
# [11] = cold plus mannitol pre-treatment 3 to 4 days, 0.3 mol/liter mannitol at 4° C., responsive genotypes
structure (smiles),measurement,setting,value
OC[C@@H](O)[C@@H](O)[C@H](O)[C@H](O)CO [mannitol],# Embryos formed,[1]; 4 d pretreatment of spikes at 4° C. in 0.3 mol/liter mannitol,9579
same,# Embryos formed,[1]; 7 d pretreatment of spikes at 4° C. in 0.3 mol/liter mannitol,9693
same,# Embryos formed,[1]; 14 d pretreatment of spikes at 4° C. in 0.3 mol/liter mannitol,8981
same,# Embryos formed,[1]; 21 d pretreatment of spikes at 4° C. in 0.3 mol/liter mannitol,9692
same,# Embryos formed,[1]; 28 d pretreatment of spikes at 4° C. in 0.3 mol/liter mannitol,10213
same,% embryoid Regeneration,[2]; [3],89%
same,Embryoids,[2]; [3],14133
same,% embryoid Regeneration,[2]; [4],84%
same,Embryoids,[2]; [4],7667
same,Embryoids,"[2]; GBC 782, pretreatment 3 d 0.3M man. 4° C.",14496
same,Embryoids,"[2]; GBC 783, pretreatment 3 d 0.3M man. 4° C.",11360
same,% embryoid Regeneration,[2]; [5],36%
same,Embryoids,[2]; [5],5533
same,% embryoid Regeneration,[2]; [6],97%
same,Embryoids,[2]; [6],12380
same,% embryoid Regeneration,[2]; [7],88%
same,Embryoids,[2]; [7],13504
same,frequency of fertile doubled haploids among the Lina progeny,"[2]; Lina, combination of cold plus mannitol for 7 days",79%
same,% embryoid Regeneration,[2]; [8],81%
same,Embryoids,[2]; [8],8921
same,% embryoid Regeneration,[2]; [9],74%
same,Embryoids,[2]; [9],11360
same,% embryoid Regeneration,[2]; [10],58%
same,Embryoids,[2]; [10],10810
same,plants per 10^5 microspores,[2]; [11],"about 2,000 plants per 10^5 microspores"
same,plants per spike,[2]; [11],about 200 plants per spike
